The text below walks through data of ChEMBL document CHEMBL6178015, “Discovery of a Novel Serine-Targeting Covalent Inhibitor against HCES2A for Treating Drug-induced Diarrhea and Ulcerative Colitis” (J Med Chem, 2025).

SMILES strings stand for the structures. Active and inactive are the calls of the source. The rule behind the calls is not given here.

For one assay, the species on record is Homo sapiens. Briefly: Selectivity index, ratio of IC50 for inhibition of human CES1A to IC50 for inhibition of human CES2A.
Assay [1] can be described thus: Inhibition of human CES2A using fluorescein diacetate as substrate preincubated for 3 mins followed by substrate addition and measured after 30 mins by fluorescence microplate reader.
Assay [2] can be described thus: Inhibition of human CES1A using NLMe as substrate preincubated for 3 mins followed by substrate addition and measured after 20 mins by chemiluminescence analysis.
The subject of assay [3] is Mus musculus. Briefly: Antiinflammatory activity against DSS-induced ulcerative colitis mouse model assessed as goblet cell loss at 700 mg/kg,IG administered once daily 7 days by AB-PAS staining based analysis. It is filed as functional, organism-based. To be noted: time 7.0 day.
For assay [4], the system named is Mus musculus. Briefly: Antiinflammatory activity against DSS-induced ulcerative colitis mouse model assessed as epithelial damage at 700 mg/kg,IG administered once daily 7 days by AB-PAS staining based analysis. It is filed as functional, organism-based. To be noted: time 7.0 day.
For assay [5], the system named is Mus musculus. Briefly: Antiinflammatory activity against DSS-induced ulcerative colitis mouse model assessed as restoration of colon histology at 700 mg/kg,IG administered once daily 7 days by AB-PAS staining based analysis. It is filed as functional, organism-based. The following applies: time 7.0 day.

Take `CCCCCCCCC(=O)c1cccc2oc(-c3cc(OC)ccc3OC(=O)N3CCOCC3)cc12`: the Ratio IC50 in the assay listed under Homo sapiens stood at 53.9. Further, the IC50 (as a rule, the midpoint of a concentration-inhibition curve) in assay [1] is 0.542 nM; in assay [2] it was 29.2 nM.
Regarding `CCCCCCCCC(=O)c1cccc2oc(-c3cc(OC)ccc3OC(=O)N(C)CC)cc12`, the Ratio IC50 in the assay filed under Homo sapiens came out at 6.4. Besides, the half-inhibitory concentration (IC50) in assay [1] was determined as 0.625 nM; in assay [2], 4 nM.
Take `CCCCCCC(=O)c1cccc2oc(-c3cc(C)ccc3NC(=O)OCCCC)cc12`: the IC50 in assay [1] worked out at 623 nM.
`CCCCCCC(=O)c1cccc2oc(-c3ccccc3N)cc12` registered an IC50 in assay [1] of 944 nM.
`CCCCCCOC(=O)Nc1ccccc1-c1cc2c(C(=O)CCCCCC)cccc2o1` returned an IC50 in assay [1] above 10000 nM.
In assay [1], `CN(C)C(=O)C(CCN1CCC(O)(c2ccc(Cl)cc2)CC1)(c1ccccc1)c1ccccc1` [LOPERAMIDE] returned an IC50 of 351 nM.
Turning to `CCCCCCC(=O)c1cccc2oc(-c3cc(C)ccc3NC(=O)OCC(C)C)cc12`, the Ratio IC50 in the assay listed under Homo sapiens was above 9600. Further, the IC50 in assay [1] is 1.04 nM; in assay [2], above 10000 nM.
Compound `CCCCCCC(=O)c1cccc2oc(-c3cc(C)ccc3N)cc12` returned an IC50 in assay [1] of 612 nM.
`C=CCOC(=O)Nc1ccccc1-c1cc2c(C(=O)CCCCCC)cccc2o1` came in with an IC50 in assay [1] of 596 nM.
In the case of `CCCCCCC(=O)c1cccc2oc(-c3cc(C)ccc3NC(=O)OCc3ccccc3)cc12`, inhibition in assay [1] was half-maximal at 3640 nM (IC50).
As for `CCCCCCC(=O)c1cccc2oc(-c3cc(C)ccc3NC(=O)OCC(CC)CCCC)cc12` (stereo unspecified), in assay [1], the IC50 came out at 4260 nM.
Regarding `CCCCCCC(=O)c1cccc2oc(-c3ccccc3NC(=O)OCC(CC)CCCC)cc12` (stereo unspecified), the IC50 in assay [1] came to 1340 nM.
On to `CCCCCCCCC(=O)c1cccc2oc(-c3cc(OC)ccc3OC(=O)N(C)C)cc12`, for which, in the assay filed under Homo sapiens, the Ratio IC50 came to 1260. For the same compound, the half-inhibitory concentration (IC50) in assay [1] came out at 0.189 nM; in assay [2], 239 nM.
On to `C=CCOC(=O)Nc1ccc(C)cc1-c1cc2c(C(=O)CCCCCC)cccc2o1`, for which, in assay [1], the IC50 worked out at 383 nM.
On the same count and under the same terms, in the case of `CCCCCCOC(=O)Nc1ccc(C)cc1-c1cc2c(C(=O)CCCCCC)cccc2o1` it was 362 nM; in that of `CCCC(=O)c1cccc2oc(-c3cc(C)ccc3NC(=O)OCCCl)cc12`, 983 nM; in that of `CCCCCCC(=O)c1cccc2oc(-c3cc(C)ccc3NC(=O)OCC3c4ccccc4-c4ccccc43)cc12`, 2140 nM.
In turn, `CCCCCCC(=O)c1c(C)ccc2oc(-c3cc(OC)ccc3O)cc12` displayed an IC50 in assay [1] of 1.55 nM.
The same measure, in the same setting: in the case of `CCCCCCC(=O)c1cccc2oc(-c3cc(OC)ccc3N)cc12` it was 1970 nM; in that of `CCCCCCCCC(=O)c1cccc2oc(-c3ccccc3N)cc12`, 881 nM; in that of `CCCCCCCCC(=O)c1cccc2oc(-c3cc(OC)ccc3OC(=O)N(CC)CC)cc12`, 6.37 nM.
On to `CCCCCCC(=O)c1cccc2oc(-c3cc(OC)ccc3OC(=O)N3CCCC3)cc12`, for which the Ratio IC50 in the assay listed under Homo sapiens stood at 22.7. The results for the IC50 in assay [1] and in assay [2] were 0.249 nM and 5.65 nM, respectively.
In the case of `CCCCCCC(=O)c1cccc2oc(-c3ccccc3NC(=O)OCc3ccccc3)cc12`, half-maximal inhibition in assay [1] (IC50) was put at 616 nM.
In assay [1], `CCCC(=O)c1cccc2oc(-c3cc(C)ccc3N)cc12` had a 50% inhibitory concentration (IC50) of 3110 nM.
For the compound `CCCCCCC(=O)c1cccc2oc(-c3cc(OC)ccc3OC(=O)N(C)C)cc12`, the Ratio IC50 in the assay listed under Homo sapiens is 44.8. Besides, the IC50 in assay [1] amounted to 0.509 nM; in assay [2], 22.9 nM.
For `CCCCCCC(=O)c1cccc2oc(-c3ccccc3NC(=O)OCCCl)cc12`, in that order: above 176, 56.6 nM and above 10000 nM.
`CCCCCCC(=O)c1cccc2oc(-c3ccccc3NC(=O)OCCCC)cc12`: in assay [1], half-maximal inhibition (IC50) was put at 1260 nM.
Same read-out and setting: to `CCCCCCCCC(=O)c1cccc2oc(-c3cc(C)ccc3N)cc12` belongs 736 nM; to `CCCC(=O)c1cccc2oc(-c3ccccc3N)cc12`, 11100 nM.
`O=C(O)c1cc(/N=N/c2ccc(S(=O)(=O)Nc3ccccn3)cc2)ccc1O`: the outcome in the assay with Mus musculus [3] and in the assay on Mus musculus [4] was inactive. Further, the result in the assay on Mus musculus [5] was Active.
